Measurements from patent US20210290580A1, “New use of carbamate ß phenylethanolamine analogues for enhancing intracellular clearance of LDL cholesterol and for combining therapy with statins to enhance the efficacy and reduce adverse effects” (priority 2018, published 2021).

Experiments:
LDL receptors = assay: LDL receptor expression, anti-LDLR immunofluorescence in liver cells; format: cell-based, Mouse; settings: 24 hours; for Up-regulating of LDL receptors (Intensity of fluoresces) MEAN %: hepatic (AML12) cells, control = 100
Protocol: Cells were incubated with florescence labeled LDL to study the up-taking and metabolite of LDL cholesterol by the cells. LDL specific antibody were used to study LDL receptors expressed by the cells. […] After 24 hours of treatments, the cells were washed and fixed with paraformaldehyde. Cells were then incubated with anti-LDLR primary antibody with 1:200 dilution at room temperature for 4 hours. After washed, the second antibody Alexa Fluor 488 with 1:200 dilutions was added and incubated at room temperature for 2 hours. The cells were washed again before examined under fluorescent microscope. The fluorescence anti-body bound LDL receptors in green and either bound or internalized fluoresces labeled LDL in red were examined separately or after merging. Fluorescent microscope equipped with a digital camera (Axio Observer 7). Computer software was used to quantify the intensity of fluorescence, which is correlated with the amount of LDL and LDL receptors bounded to antibodies.

Mouse liver AML12 cells [1] = assay: Intracellular cholesterol content in AML12 cells loaded with LDL; format: cell-based; settings: for Intracellular cholesterol MEAN % (Synergistic Effects of Combining R-bambuterol and Statin): 10 μM (each drug 10 μM in the combination), LDL 40 μg/ml, AML12 cells, LDL Ctrl = 100; for Reduction of intercellular cholesterol, in words: 10 μM, Mouse liver AML12 cells
Protocol: Cells were then treated with different doses of R-bambuterol (R-BM) in the present of LDL (40 μg/ml). After 24 hours of incubation, total intracellular and extracellular cholesterol content were determined using Total Cholesterol Assay Kit E105 (Applygen Technologies Inc., Beijing, China) according to the manufacturer's protocol. The intracellular cholesterol is similar in control and LDL groups.

Human liver HepG2 cells = assay: Intracellular cholesterol content in HepG2 cells loaded with LDL (Total Cholesterol Assay Kit); format: cell-based; settings: LDL 40 μg/ml, 24 hours, LDL control = 100
Protocol: Human liver HepG2 cells were seeded in six well plates in DMEM/F12 supplemented with 10% heat-inactivated fetal bovine serum. Cells were then treated with different doses of R-bambuterol (R-BM) in the present of LDL (40 μg/ml). After 24 hours of incubation, total intracellular and extracellular cholesterol content were determined using Total Cholesterol Assay Kit E105 (Applygen Technologies Inc., Beijing, China) according to the manufacturer's protocol.

[2] = test system: Pulmonary artery smooth muscle cell (PASMC)
Protocol: Cells were cultivated for 24 hours at room temperature. The cells then replaced again with FBS-free medium containing 10% CCK-8 reagent and cultivated for 3 hours in the dark.
A Multi-function micro plate reader (TriStar2S LB942) was used to measure the cell viability.
Cells added no drugs (0 μM) were used as control.

Mouse liver AML12 cells [3] = assay: Up-taking of fluorescence labeled LDL by liver cells; format: cell-based; settings: 10 μM and 20 μM, 24 hours, compared between groups
Protocol: Mouse liver AML12 cells were seeded in 24 well plates in DMEM/F12 and supplemented with 10% heat-inactivated fetal bovine serum. Cells were incubated with florescence labeled LDL to study the up-taking and metabolite of LDL cholesterol by the cells. LDL specific antibody were used to study LDL receptors expressed by the cells. […] The fluorescence anti-body bound LDL receptors in green and either bound or internalized fluoresces labeled LDL in red were examined separately or after merging. Fluorescent microscope equipped with a digital camera (Axio Observer 7). Computer software was used to quantify the intensity of fluorescence, which is correlated with the amount of LDL and LDL receptors bounded to antibodies.

[4] = 20 μM (each drug 20 μM in the combination)

SMILES: CN(C)C(=O)Oc1cc(OC(=O)N(C)C)cc(C(O)CNC(C)(C)C)c1 (stereo not shown) [R-BM, R-bambuterol]
- Up-regulating of LDL receptors (Intensity of fluoresces) MEAN % (LDL receptors; 10 μM): 202.9%
- Up-regulating of LDL receptors (Intensity of fluoresces) MEAN % (LDL receptors; [4]): 337.2%
- Increase in LDL receptors expression compared with statin treated groups (LDL receptors; AML12 cells): twice as much as seen in statin treated groups
- Intracellular cholesterol MEAN % (Synergistic Effects of Combining R-bambuterol and Statin) (Mouse liver AML12 cells [1]): 94.5%
- Reduction of intercellular cholesterol, in words (Mouse liver AML12 cells [1]): less reduction of intercellular cholesterol
- Reduction of intercellular LDL cholesterol MEAN % (Human liver HepG2 cells; 5 μM): 94.07%
- Reduction of intercellular LDL cholesterol MEAN % (Human liver HepG2 cells; 10 μM): 69.26%
- Reduction of intercellular LDL cholesterol MEAN % (Human liver HepG2 cells; 20 μM): 28.54%
- Reduction of intercellular LDL cholesterol MEAN % (Human liver HepG2 cells; 40 μM): 36.04%
- Reduction of intercellular LDL cholesterol MEAN % (Human liver HepG2 cells; 80 μM): 21.02%
- Toxicity to the viability of PASMC, in words [2]: no toxicity
- Bound and intracellular fluorescence labeled LDL (Mouse liver AML12 cells [3]): significantly more bound and intracellular fluorescence labeled LDL

SMILES: CC(C)c1c(C(=O)Nc2ccccc2)c(-c2ccccc2)c(-c2ccc(F)cc2)n1CC[C@@H](O)C[C@@H](O)CC(=O)O [Statin, Atorvastatin]
- Up-regulating of LDL receptors (Intensity of fluoresces) MEAN % (LDL receptors; 10 μM): 159.1%
- Up-regulating of LDL receptors (Intensity of fluoresces) MEAN % (LDL receptors; [4]): 140.2%
- Intracellular cholesterol MEAN % (Synergistic Effects of Combining R-bambuterol and Statin) (Mouse liver AML12 cells [1]): 95.3%
- Reduction of intercellular cholesterol, in words (Mouse liver AML12 cells [1]): little effects on intercellular cholesterol
